Laboratory results published in patent US20050070519A1, “Cyclisation process for the preparation of c-2 beta-lactam compounds” (priority 2001, published 2005).

Target: T1, BLS (β-lactam synthetase), polyhistidine tagged (Streptomyces clavuligerus, UniProt P0DJQ7)
T1 construct: made in house; host or cells: E. coli BL21(DE3), co-expressed with chaperonin GroELS
T1 sequence (P0DJQ7 1-513): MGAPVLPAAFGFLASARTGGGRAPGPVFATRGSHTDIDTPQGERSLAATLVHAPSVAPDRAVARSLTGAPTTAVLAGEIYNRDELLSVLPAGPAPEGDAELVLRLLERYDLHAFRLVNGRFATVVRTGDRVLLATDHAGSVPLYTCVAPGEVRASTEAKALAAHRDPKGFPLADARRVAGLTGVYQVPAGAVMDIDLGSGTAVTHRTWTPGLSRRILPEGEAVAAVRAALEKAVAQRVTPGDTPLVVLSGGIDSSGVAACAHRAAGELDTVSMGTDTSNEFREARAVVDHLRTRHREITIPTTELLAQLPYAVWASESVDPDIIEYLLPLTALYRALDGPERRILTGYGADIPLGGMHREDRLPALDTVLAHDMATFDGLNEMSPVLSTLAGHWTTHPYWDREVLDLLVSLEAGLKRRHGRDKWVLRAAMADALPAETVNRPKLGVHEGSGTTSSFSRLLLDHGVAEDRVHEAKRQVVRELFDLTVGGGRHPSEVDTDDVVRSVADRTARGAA
Test: fluorescence detection pre-column derivatised HPLC substrate assay with polyhistidine tagged BLS
Type: biochemical
Source text: The bls gene has previously been expressed at relatively low levels using a pET24a(+) construct and purified by an involved two column protocol giving low overall yields (McNaughton, H. J.; Thirkettle, J. E.; Zhang, Z. H.; Schofield, C. J.; Jensen, S. E.; Barton, B.; Greaves, P. J. Chem. Soc., Chem. Commun. 1998, 2325-2326; Bachmann, B. O.; Townsend, C. A. Biochemistry 2000, 39, 11187-11193). To facilitate purification a polyhistidine tagged form of BLS (β-lactam synthetase) was produced by cloning bis into the pET28a(+) vector (from Novagen). […]
The bls gene in the vector pET28a(+) and a plasmid bearing the chaperonin GroELS^13 were simultaneously transformed into E. coli BL21(DE3) for co-expression. […] When the absorbance at 600 nm reached ˜1.0, IPTG was added to a final concentration of 1.0 mM and the cells harvested 16 hours later by centrifugation. […]
The 2-methylated substrate analogue (6) was initially assayed as a substrate for BLS using a fluorescence detection pre-column derivatised HPLC assay based on the work of Kai et al (Kai, M.; Miyazaki, T.; Yamaguchi, M.; Ohkura, Y. J. Chromatogr. 1983, 425-436). […]
Reactions were incubated at 37° C. for 15 minutes and then derivatised. […] Fluorescence was measured at 425 nm against 325 nm excitation. […]

## 2-Methyl CEA
Larger scale incubation, product isolated by HPLC, 1H NMR (500 MHz) analysis
  relative substrate efficiency of the two 2-methyl epimers: both epimers are approximately equally efficient substrates
Standard assay conditions: 2 mM substrate, 5 mM ATP, 10 mM MgCl2, pH 9, ca. 74 μg enzyme, 37° C., 15 minutes
  conversion of 2-methyl CEA (6) to 2-methyl DGPC (9): ca. 50%
